# According to PubChem BioAssay (NCI):
#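 These data come from cells grown in 96-well plates and exposed to compound for 48 hours at five concentrations. The concentration for full growth arrest is given as TGI.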
# Columns and labels:
# Experiment in all cases: NCI tumour cell line growth inhibition, 48 h
# [1] = system: 786-0 renal
# [2] = system: A498 renal
# [3] = system: A549 NSCLC
# [4] = system: ACHN renal
# [5] = system: BT-549 breast
# [6] = system: CAKI-1 renal
# [7] = system: CCRF-CEM leukemia
# [8] = system: COLO 205 colon
# [9] = system: DU-145 prostate
# [10] = system: EKVX NSCLC
# [11] = system: HCT-116 colon
# [12] = system: HCT-15 colon
# [13] = system: HOP-62 NSCLC
# [14] = system: HOP-92 NSCLC
# [15] = system: HS 578T breast
# [16] = system: HT29 colon
# [17] = system: IGROV1 ovarian
# [18] = system: KM12 colon
# [19] = system: LOX IMVI melanoma
# [20] = system: M14 melanoma
# [21] = system: MCF7 breast
# [22] = system: MDA-MB-231 breast
# [23] = system: MDA-MB-435
# [24] = system: MDA-N
# [25] = system: NCI-H226 lung
# [26] = system: NCI-H23 lung
# [27] = system: NCI-H460 lung
# [28] = system: NCI-H522 lung
# [29] = system: NCI/ADR-RES ovarian
# [30] = system: OVCAR-3 ovarian
# [31] = system: OVCAR-4 ovarian
# [32] = system: OVCAR-5 ovarian
# [33] = system: OVCAR-8 ovarian
# [34] = system: PC-3 prostate
# [35] = system: RPMI-8226 leukemia
# [36] = system: SF-268 CNS
# [37] = system: SF-295 CNS
# [38] = system: SK-MEL-2 melanoma
# [39] = system: SK-MEL-28 melanoma
# [40] = system: SK-OV-3 ovarian
# [41] = system: SN12C renal
# [42] = system: SNB-19 CNS
# [43] = system: SNB-75 CNS
# [44] = system: SW-620 colon
# [45] = system: T-47D breast
# [46] = system: TK-10 renal
# [47] = system: UACC-257 melanoma
# [48] = system: UO-31 renal
# [49] = system: HCC-2998 colon
# [50] = system: HL-60(TB) leukemia
# [51] = system: K-562 leukemia
# [52] = system: MALME-3M melanoma
# [53] = system: MOLT-4 leukemia
# [54] = system: RXF 393 renal
# [55] = system: SF-539 CNS
# [56] = system: SK-MEL-5 melanoma
# [57] = system: SR leukemia
# [58] = system: U251 CNS
# [59] = system: UACC-62 melanoma
smiles,measurement,setting,value
COc1ccc(N2C(=O)C3c4[nH]c5c(C)cccc5c4C4CCC(c5ccccc5)CC4C3C2=O)cc1 (stereo not drawn),TGI,[1],> 100 µM
same,TGI,[2],39.1 µM
same,TGI,[3],24.2 µM
same,TGI,[4],43.5 µM
same,TGI,[5],47.8 µM
same,TGI,[6],39.3 µM
same,TGI,[7],4.41 µM
same,TGI,[8],83.9 µM
same,TGI,[9],31.1 µM
same,TGI,[10],63.4 µM
same,TGI,[11],> 100 µM
same,TGI,[12],> 100 µM
same,TGI,[13],27.3 µM
same,TGI,[14],41 µM
same,TGI,[15],28.6 µM
same,TGI,[16],21.3 µM
same,TGI,[17],33.5 µM
same,TGI,[18],42.2 µM
same,TGI,[19],> 100 µM
same,TGI,[20],26 µM
same,TGI,[21],21.7 µM
same,TGI,[22],78.2 µM
same,TGI,[23],34.3 µM
same,TGI,[24],34.3 µM
same,TGI,[25],46.3 µM
same,TGI,[26],67.7 µM
same,TGI,[27],18.2 µM
same,TGI,[28],16.7 µM
same,TGI,[29],66.4 µM
same,TGI,[30],60.4 µM
same,TGI,[31],26.6 µM
same,TGI,[32],28.8 µM
same,TGI,[33],36.8 µM
same,TGI,[34],28.2 µM
same,TGI,[35],30.4 µM
same,TGI,[36],20.3 µM
same,TGI,[37],40.2 µM
same,TGI,[38],60.8 µM
same,TGI,[39],27.9 µM
same,TGI,[40],34 µM
same,TGI,[41],59.5 µM
same,TGI,[42],76.3 µM
same,TGI,[43],24.4 µM
same,TGI,[44],40.5 µM
same,TGI,[45],28.6 µM
same,TGI,[46],> 100 µM
same,TGI,[47],51.2 µM
same,TGI,[48],43.3 µM
COc1cccc(C2c3cc4c(cc3OC(NNc3ccccc3)C2C)OCO4)c1OC (stereo not drawn),TGI,[1],> 100 µM
same,TGI,[2],88.1 µM
same,TGI,[3],> 100 µM
same,TGI,[4],> 100 µM
same,TGI,[5],67.2 µM
same,TGI,[6],> 100 µM
same,TGI,[7],31.6 µM
same,TGI,[8],15.7 µM
same,TGI,[9],68.7 µM
same,TGI,[10],32.3 µM
same,TGI,[49],6.79 µM
same,TGI,[11],23.4 µM
same,TGI,[12],> 100 µM
same,TGI,[50],17 µM
same,TGI,[13],> 100 µM
same,TGI,[15],80.1 µM
same,TGI,[16],58.2 µM
same,TGI,[17],> 100 µM
same,TGI,[51],9.05 µM
same,TGI,[18],> 100 µM
same,TGI,[19],> 100 µM
same,TGI,[20],> 100 µM
same,TGI,[52],70.7 µM
same,TGI,[21],76.2 µM
same,TGI,[22],> 100 µM
same,TGI,[23],> 100 µM
same,TGI,[24],> 100 µM
same,TGI,[53],53.3 µM
same,TGI,[25],74.4 µM
same,TGI,[26],96.9 µM
same,TGI,[27],> 100 µM
same,TGI,[28],> 100 µM
same,TGI,[30],24 µM
same,TGI,[32],> 100 µM
same,TGI,[33],> 100 µM
same,TGI,[34],46.6 µM
same,TGI,[35],> 100 µM
same,TGI,[54],44.1 µM
same,TGI,[36],> 100 µM
same,TGI,[37],4.24 µM
same,TGI,[55],84.2 µM
same,TGI,[38],> 100 µM
same,TGI,[39],> 100 µM
same,TGI,[56],> 100 µM
same,TGI,[40],> 100 µM
same,TGI,[41],> 100 µM
same,TGI,[42],> 100 µM
same,TGI,[43],> 100 µM
same,TGI,[57],18.8 µM
same,TGI,[44],> 100 µM
same,TGI,[45],> 100 µM
same,TGI,[46],25.1 µM
same,TGI,[58],> 100 µM
same,TGI,[47],71.5 µM
same,TGI,[59],> 100 µM
same,TGI,[48],> 100 µM
COc1c(Cl)nc2ccccc2c1N=[N+]=[N-],TGI,[1],> 100 µM
same,TGI,[2],60.9 µM
same,TGI,[3],> 100 µM
same,TGI,[4],> 100 µM
same,TGI,[5],94.8 µM
same,TGI,[6],> 100 µM
same,TGI,[7],> 100 µM
same,TGI,[8],> 100 µM
same,TGI,[9],> 100 µM
same,TGI,[49],> 100 µM
same,TGI,[11],> 100 µM
same,TGI,[50],> 100 µM
same,TGI,[13],> 100 µM
same,TGI,[14],> 100 µM
same,TGI,[15],> 100 µM
same,TGI,[16],> 100 µM
same,TGI,[17],> 100 µM
same,TGI,[51],> 100 µM
same,TGI,[18],> 100 µM
same,TGI,[19],> 100 µM
same,TGI,[20],> 100 µM
same,TGI,[52],> 100 µM
same,TGI,[21],> 100 µM
same,TGI,[22],> 100 µM
same,TGI,[23],> 100 µM
same,TGI,[24],> 100 µM
same,TGI,[53],> 100 µM
same,TGI,[26],> 100 µM
same,TGI,[27],> 100 µM
same,TGI,[30],> 100 µM
same,TGI,[31],> 100 µM
same,TGI,[32],> 100 µM
same,TGI,[34],> 100 µM
same,TGI,[35],> 100 µM
same,TGI,[54],> 100 µM
same,TGI,[36],> 100 µM
same,TGI,[37],> 100 µM
same,TGI,[55],> 100 µM
same,TGI,[39],> 100 µM
same,TGI,[56],> 100 µM
same,TGI,[40],> 100 µM
same,TGI,[41],> 100 µM
same,TGI,[42],> 100 µM
same,TGI,[43],> 100 µM
same,TGI,[57],> 100 µM
same,TGI,[44],> 100 µM
same,TGI,[45],> 100 µM
same,TGI,[46],> 100 µM
same,TGI,[58],> 100 µM
same,TGI,[47],> 100 µM
same,TGI,[59],> 100 µM
same,TGI,[48],> 100 µM
O=C1CCN(CCC(F)(F)C(F)(F)C(F)(F)C(F)(F)C(F)(F)C(F)(F)F)C(=S)N1CCC(F)(F)C(F)(F)C(F)(F)C(F)(F)C(F)(F)C(F)(F)F,TGI,[1],> 100 µM
same,TGI,[2],> 100 µM
same,TGI,[3],> 100 µM
same,TGI,[4],> 100 µM
same,TGI,[5],> 100 µM
same,TGI,[6],> 100 µM
same,TGI,[7],> 100 µM
same,TGI,[8],> 100 µM
same,TGI,[9],> 100 µM
same,TGI,[10],> 100 µM
same,TGI,[49],> 100 µM
same,TGI,[11],> 100 µM
same,TGI,[50],> 100 µM
same,TGI,[13],> 100 µM
same,TGI,[14],> 100 µM
same,TGI,[15],> 100 µM
same,TGI,[16],> 100 µM
same,TGI,[17],> 100 µM
same,TGI,[51],> 100 µM
same,TGI,[18],> 100 µM
same,TGI,[20],> 100 µM
same,TGI,[52],> 100 µM
same,TGI,[21],> 100 µM
same,TGI,[22],> 100 µM
same,TGI,[23],> 100 µM
same,TGI,[24],> 100 µM
same,TGI,[53],> 100 µM
same,TGI,[25],> 100 µM
same,TGI,[26],> 100 µM
same,TGI,[27],> 100 µM
same,TGI,[28],> 100 µM
same,TGI,[30],> 100 µM
same,TGI,[31],> 100 µM
same,TGI,[32],> 100 µM
same,TGI,[33],> 100 µM
same,TGI,[34],> 100 µM
same,TGI,[54],> 100 µM
same,TGI,[36],> 100 µM
same,TGI,[37],> 100 µM
same,TGI,[55],> 100 µM
same,TGI,[39],> 100 µM
same,TGI,[56],> 100 µM
same,TGI,[40],> 100 µM
same,TGI,[41],> 100 µM
same,TGI,[42],> 100 µM
same,TGI,[43],> 100 µM
same,TGI,[57],> 100 µM
same,TGI,[44],> 100 µM
same,TGI,[45],> 100 µM
same,TGI,[46],> 100 µM
same,TGI,[58],> 100 µM
same,TGI,[47],> 100 µM
same,TGI,[59],> 100 µM
same,TGI,[48],> 100 µM
CC(=O)OCC12C(OC(C)=O)C(=O)C3C(OC(C)=O)C14OC3(C)COC(=O)c1cccnc1C(C)C(C)C(=O)OC(C(OC(C)=O)C2OC(C)=O)C4(C)O (stereo not drawn),TGI,[1],> 100 µM
same,TGI,[2],> 100 µM
same,TGI,[3],> 100 µM
same,TGI,[4],> 100 µM
same,TGI,[5],> 100 µM
same,TGI,[6],> 100 µM
same,TGI,[7],> 100 µM
same,TGI,[8],> 100 µM
same,TGI,[9],> 100 µM
same,TGI,[10],> 100 µM
same,TGI,[49],> 100 µM
same,TGI,[11],> 100 µM
same,TGI,[12],> 100 µM
same,TGI,[50],> 100 µM
same,TGI,[13],> 100 µM
same,TGI,[14],> 100 µM
same,TGI,[15],> 100 µM
same,TGI,[16],> 100 µM
same,TGI,[17],> 100 µM
same,TGI,[51],> 100 µM
same,TGI,[18],> 100 µM
same,TGI,[19],> 100 µM
same,TGI,[20],> 100 µM
same,TGI,[52],> 100 µM
same,TGI,[21],> 100 µM
same,TGI,[22],> 100 µM
same,TGI,[23],> 100 µM
same,TGI,[24],> 100 µM
same,TGI,[53],> 100 µM
same,TGI,[25],> 100 µM
same,TGI,[26],> 100 µM
same,TGI,[27],> 100 µM
same,TGI,[28],> 100 µM
same,TGI,[30],> 100 µM
same,TGI,[31],> 100 µM
same,TGI,[32],> 100 µM
same,TGI,[33],> 100 µM
same,TGI,[34],> 100 µM
same,TGI,[35],> 100 µM
same,TGI,[54],> 100 µM
same,TGI,[36],> 100 µM
same,TGI,[37],> 100 µM
same,TGI,[55],> 100 µM
same,TGI,[38],> 100 µM
same,TGI,[39],> 100 µM
same,TGI,[56],> 100 µM
same,TGI,[40],> 100 µM
same,TGI,[41],> 100 µM
same,TGI,[42],> 100 µM
same,TGI,[43],> 100 µM
same,TGI,[57],> 100 µM
same,TGI,[44],> 100 µM
same,TGI,[45],> 100 µM
same,TGI,[46],> 100 µM
same,TGI,[58],> 100 µM
same,TGI,[47],> 100 µM
same,TGI,[59],> 100 µM
same,TGI,[48],> 100 µM
